Results: ChEMBL document CHEMBL5143608, “Peptide-based long-acting co-agonists of GLP-1 and cholecystokinin 1 receptors as novel anti-diabesity agents” (Eur J Med Chem, 2022)
Blank lines part the entries; values can stand above or below the compound they belong to. Calls of active or inactive are those of the source. The calls are words filed in the database; no cut-off is given here.

What was measured:
[1] = tested on: Mus musculus; experiment: Anti-diabesity activity against DIO C57BL/6 mouse assessed as reduction in triglycerides level in serum at 25 nmol/kg, sc administered every 2 days for 3 weeks; assay type: functional, organism-based; settings: time 21.0 day
[2] = Hepatotoxicity in DIO C57BL/6 mouse assessed as alanine aminotransferase level in plasma at 100 nmol/kg, sc administered once daily for 7 days; assay type: toxicity, organism-based; settings: in vivo, 168 h, time 7 day
[3] = tested on: Mus musculus; experiment: Anti-diabesity activity against db/db mouse assessed as reduction in fasted blood glucose level at 25 nmol/kg, sc administered every 2 days for 3 weeks; assay type: functional, organism-based; settings: time 21.0 day
[4] = tested on: Mus musculus; experiment: Anorectic activity in ICR mouse assessed as decrease in food intake at 25 nmol/kg, ip and measured after 24 hrs; assay type: functional, organism-based
[5] = Hepatotoxicity in db/db mouse assessed as alanine aminotransferase level in plasma at 100 nmol/kg, sc administered once daily for 7 days; assay type: toxicity, organism-based; settings: in vivo, 168 h, time 7 day
[6] = tested on: Mus musculus; experiment: Anti-diabesity activity against db/db mouse assessed as reduction in HbA1c level at 25 nmol/kg, sc administered every 2 days for 12 weeks; assay type: functional, organism-based
[7] = tested on: Mus musculus; experiment: Anti-diabesity activity in DIO C57BL/6 mouse assessed as reduction in body weight at 100 nmol/kg, sc administered every 2 days for 10 days; assay type: functional; settings: C57BL/6, 240 h, time 10 day
[8] = Hepatotoxicity in DIO C57BL/6 mouse assessed as alanine aminotransferase level in serum at 25 nmol/kg, sc administered every 2 days for 3 weeks; assay type: toxicity, organism-based; settings: in vivo, 504 h, time 21 day
[9] = tested on: Mus musculus; experiment: Anti-diabesity activity in DIO C57BL/6 mouse assessed as decrease in fasted blood glucose level at 100 nmol/kg, sc administered once daily for 7 days; assay type: functional, organism-based; settings: time 7.0 day
[10] = Pancreatic insult activity in db/db mouse assessed as increase in lipase level in plasma at 100 nmol/kg, sc administered once daily for 7 days; assay type: toxicity, organism-based; settings: in vivo, 168 h, time 7 day
[11] = Hepatotoxicity in db/db mouse assessed as alanine aminotransferase level in plasma at 25 nmol/kg, sc administered every 2 days for 12 weeks; assay type: toxicity, organism-based; settings: in vivo, 2016 h
[12] = Pancreatic insult activity in DIO C57BL/6 mouse assessed as increase in lipase level in plasma at 100 nmol/kg, sc administered once daily for 7 days; assay type: toxicity, organism-based; settings: in vivo, 168 h, time 7 day
[13] = tested on: Mus musculus; experiment: Anti-diabesity activity against db/db mouse assessed as improvement in glucose tolerance at 25 nmol/kg, sc administered every 2 days for 3 weeks by OGTT; assay type: functional, organism-based; settings: time 21.0 day
[14] = tested on: Mus musculus; experiment: Hypoglycemic activity in db/db mouse assessed as improvement in glucose tolerance at 25 nmol/kg, ip administered 30 min before oral glucose administration and measured upto 120 mins by OGTT; assay type: functional, organism-based
[15] = tested on: Mus musculus; experiment: Anti-diabesity activity against db/db mouse assessed as HbA1c level at 25 nmol/kg, sc administered every 2 days for 3 weeks; assay type: functional, organism-based; settings: time 21.0 day
[16] = tested on: Mus musculus; experiment: Anti-diabesity activity in db/db mouse assessed as decrease in cumulative food intake at 100 nmol/kg, sc administered once daily for 7 days; assay type: functional, organism-based; settings: time 7.0 day
[17] = Half life in Sprague-Dawley rat at 25 nmol/kg, sc by LC-MS/MS analysis; assay type: ADME, organism-based; settings: in vivo
[18] = tested on: Mus musculus; experiment: Anti-diabesity activity against DIO C57BL/6 mouse assessed as reduction in cholesterol level in serum at 25 nmol/kg, sc administered every 2 days for 3 weeks; assay type: functional, organism-based; settings: time 21.0 day
[19] = Pancreatic insult activity in DIO C57BL/6 mouse assessed as lipase level in serum at 25 nmol/kg, sc administered every 2 days for 3 weeks; assay type: toxicity, organism-based; settings: in vivo, 504 h, time 21 day
[20] = Hepatotoxicity in db/db mouse assessed as aspartate aminotransferase level in plasma at 25 nmol/kg, sc administered every 2 days for 12 weeks; assay type: toxicity, organism-based; settings: in vivo, 2016 h
[21] = tested on: Mus musculus; experiment: Anti-diabesity activity against DIO C57BL/6 mouse assessed as reduction in cumulative food intake at 25 nmol/kg, sc administered every 2 days for 3 weeks; assay type: functional, organism-based; settings: time 21.0 day
[22] = tested on: Mus musculus; experiment: Anti-diabesity activity in DIO C57BL/6 mouse assessed as reduction in cumulative food intake at 100 nmol/kg, sc administered once daily for 7 days; assay type: functional, organism-based; settings: time 7.0 day
[23] = MRT in Sprague-Dawley rat at 25 nmol/kg, sc by LC-MS/MS analysis; assay type: ADME, organism-based; settings: in vivo
[24] = tested on: Mus musculus; experiment: Anti-diabesity activity in DIO C57BL/6 mouse assessed as reduction in body weight at 10 nmol/kg, sc administered every 2 days for 10 days; assay type: functional; settings: C57BL/6, 240 h, time 10 day
[25] = target: T1, Cholecystokinin receptor type A (Homo sapiens, UniProt P32238); experiment: Agonist activity at human CCK1R expressed in HEK293 cells assessed as ERK1/2 phosphorylation incubated for 5 mins by AlphaScreen assay; assay type: functional, cell-based; settings: hek293
T1 sequence (P32238 whole entry): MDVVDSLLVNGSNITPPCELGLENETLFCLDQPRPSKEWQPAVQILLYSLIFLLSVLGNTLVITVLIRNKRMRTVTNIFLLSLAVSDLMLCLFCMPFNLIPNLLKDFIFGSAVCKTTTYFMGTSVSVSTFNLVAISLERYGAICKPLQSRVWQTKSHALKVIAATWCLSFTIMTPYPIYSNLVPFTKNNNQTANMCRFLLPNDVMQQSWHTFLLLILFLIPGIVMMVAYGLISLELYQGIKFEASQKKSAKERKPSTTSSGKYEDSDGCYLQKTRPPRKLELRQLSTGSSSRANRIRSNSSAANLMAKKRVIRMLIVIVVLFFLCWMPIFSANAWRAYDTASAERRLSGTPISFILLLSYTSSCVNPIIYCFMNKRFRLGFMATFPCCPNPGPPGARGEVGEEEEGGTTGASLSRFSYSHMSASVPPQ

[26] = Renal toxicity in db/db mouse assessed as creatinine level in serum at 100 nmol/kg, sc administered once daily for 7 days; assay type: organism-based; settings: in vivo, 168 h, time 7 day
[27] = tested on: Mus musculus; experiment: Anti-diabesity activity against db/db mouse assessed as reduction in cumulative food intake at 25 nmol/kg, sc administered every 2 days for 3 weeks; assay type: functional, organism-based; settings: time 21.0 day
[28] = Renal toxicity in DIO C57BL/6 mouse assessed as creatinine level in serum at 25 nmol/kg, sc administered every 2 days for 3 weeks; assay type: organism-based; settings: in vivo, 504 h, time 21 day
[29] = tested on: Mus musculus; experiment: Anti-diabesity activity against db/db mouse assessed as reduction in fasting blood glucose level at 25 nmol/kg, sc administered every 2 days for 6 weeks followed by saline treatment for 6 weeks and measured during second 6 weeks; assay type: functional, organism-based
[30] = tested on: Mus musculus; experiment: Anti-diabesity activity against DIO C57BL/6 mouse assessed as reduction in body weight at 25 nmol/kg, sc administered every 2 days for 3 weeks; assay type: functional; settings: C57BL/6, 504 h, time 21 day
[31] = tested on: Mus musculus; experiment: Anti-diabesity activity against DIO C57BL/6 mouse assessed as increase in insulin sensitivity by measuring reduction in circulating insulin levels at 25 nmol/kg, sc administered every 2 days for 3 weeks by ELISA; assay type: functional, organism-based; settings: time 21.0 day
[32] = Pancreatic insult activity in db/db mouse assessed as increase in amylase level in serum at 25 nmol/kg, sc administered every 2 days for 12 weeks; assay type: toxicity, organism-based; settings: in vivo, 2016 h
[33] = tested on: BRIN-BD11; experiment: Insulinotropic activity in rat BRIN-BD11 cells assessed as increase in insulin secretion incubated for 20 mins by radioimmunoassay; assay type: functional, cell-based; settings: DDE = dose-dependent effect
[34] = tested on: Mus musculus; experiment: Anti-diabesity activity against db/db mouse assessed as improvement in glucose tolerance at 25 nmol/kg, sc administered every 2 days for 12 weeks by OGTT; assay type: functional, organism-based

half-life [17]: 9.2 h
MRT [23]: 14.7 h
EC50 [25]: 1.25 nM
SMILES: CCCC[C@H](NC(=O)[C@H](Cc1ccc(CS(=O)(=O)O)cc1)NC(=O)[C@H](CC(=O)O)NC(=O)COCCOCCNC(=O)COCCOCCNC(=O)[C@H](CCCNC(=N)N)NC(=O)CNC(=O)[C@H](CCCCN)NC(=O)[C@@H](NC(=O)[C@H](CC(C)C)NC(=O)[C@H](Cc1c[nH]c2ccccc12)NC(=O)[C@H](C)NC(=O)[C@@H](NC(=O)[C@H](Cc1ccccc1)NC(=O)[C@H](CCC(=O)O)NC(=O)[C@H](CCCCNC(=O)COCCOCCNC(=O)COCCOCCNC(=O)CC[C@H](NC(=O)CCCCCCCCCCCCCCCCC(=O)O)C(=O)O)NC(=O)[C@H](C)NC(=O)[C@H](C)NC(=O)[C@H](CCC(N)=O)NC(=O)CNC(=O)[C@H](CCC(=O)O)NC(=O)[C@H](CC(C)C)NC(=O)[C@H](Cc1ccc(O)cc1)NC(=O)[C@H](CO)NC(=O)[C@H](CO)NC(=O)[C@@H](NC(=O)[C@H](CC(=O)O)NC(=O)[C@H](CO)NC(=O)[C@@H](NC(=O)[C@H](Cc1ccccc1)NC(=O)[C@@H](NC(=O)CNC(=O)[C@H](CCC(=O)O)NC(=O)[C@H](C)NC(=O)[C@@H](N)Cc1cnc[nH]1)[C@@H](C)O)[C@@H](C)O)C(C)C)[C@@H](C)CC)C(C)C)C(=O)NCC(=O)N[C@@H](Cc1c[nH]c2ccccc12)C(=O)N[C@@H](CCCC)C(=O)N(C)[C@H](CC(=O)O)C(=O)N(C)[C@@H](Cc1ccccc1)C(N)=O
Activity [1]: Active
Activity [2]: Non-Toxic
Activity [3]: Active
Activity [4]: Active
Activity [5]: Non-Toxic
Activity [6]: Active
inhibition in vivo at 0.1 µmol/kg [7]: 27.1%
Activity [8]: Non-Toxic
Activity [9]: Active
Activity [10]: Non-Toxic
Activity [11]: Non-Toxic
Activity [12]: Non-Toxic
Activity [13]: Active
Activity [14]: Active
Activity [15]: Active
Activity [16]: Active
Activity [18]: Active
Activity [19]: Non-Toxic
Activity [20]: Non-Toxic
Activity [21]: Active
Activity [22]: Active
inhibition in vivo at 0.01 µmol/kg [24]: 14.5%
Activity [26]: Non-Toxic
Activity [27]: Active
Activity [28]: Non-Toxic
Activity [29]: Active
inhibition in vivo at 0.025 µmol/kg [30]: 27.3%
Activity [31]: Active
Activity [32]: Toxic
Activity [33]: Dde
Activity [34]: Active

half-life [17]: 16.8 h
MRT [23]: 25.9 h
EC50 [25]: 0.83 nM
SMILES: CCCC[C@H](NC(=O)[C@H](Cc1ccc(CS(=O)(=O)O)cc1)NC(=O)[C@H](CC(=O)O)NC(=O)COCCOCCNC(=O)COCCOCCNC(=O)[C@H](CCCCN)NC(=O)CNC(=O)[C@H](CCCCN)NC(=O)[C@@H](NC(=O)[C@H](CC(C)C)NC(=O)[C@H](Cc1c[nH]c2ccccc12)NC(=O)[C@H](CCC(=O)O)NC(=O)[C@@H](NC(=O)[C@H](Cc1ccccc1)NC(=O)[C@H](CCC(=O)O)NC(=O)[C@H](CCCCNC(=O)COCCOCCNC(=O)COCCOCCNC(=O)CC[C@H](NC(=O)CCCCCCCCCCCCCCCCC(=O)O)C(=O)O)NC(=O)[C@H](C)NC(=O)[C@H](C)NC(=O)[C@H](CCC(=O)O)NC(=O)[C@H](CCC(=O)O)NC(=O)[C@H](CCC(=O)O)NC(=O)[C@H](CC(C)C)NC(=O)[C@@H](NC(=O)[C@H](CCC(=O)O)NC(=O)[C@@H](NC(=O)[C@@H](NC(=O)[C@H](CC(=O)O)NC(=O)[C@H](CC(N)=O)NC(=O)[C@@H](NC(=O)[C@H](Cc1ccc(O)cc1)NC(=O)[C@@H](NC(=O)CNC(=O)[C@H](CCC(=O)O)NC(=O)C(C)(C)NC(=O)[C@@H](N)Cc1cnc[nH]1)[C@@H](C)O)[C@@H](C)O)C(C)C)[C@@H](C)O)[C@@H](C)O)[C@@H](C)CC)[C@@H](C)CC)C(=O)NCC(=O)N[C@@H](Cc1c[nH]c2ccccc12)C(=O)N[C@@H](CCCC)C(=O)N(C)[C@H](CC(=O)O)C(=O)N(C)[C@@H](Cc1ccccc1)C(N)=O
Activity [1]: Active
Activity [2]: Non-Toxic
Activity [3]: Active
Activity [4]: Active
Activity [5]: Non-Toxic
Activity [6]: Active
inhibition in vivo at 0.1 µmol/kg [7]: 30.6%
Activity [8]: Non-Toxic
Activity [9]: Active
Activity [10]: Non-Toxic
Activity [11]: Non-Toxic
Activity [12]: Non-Toxic
Activity [13]: Active
Activity [14]: Active
Activity [15]: Active
Activity [16]: Active
Activity [18]: Active
Activity [19]: Non-Toxic
Activity [20]: Non-Toxic
Activity [21]: Active
Activity [22]: Active
inhibition in vivo at 0.01 µmol/kg [24]: 16.2%
Activity [26]: Non-Toxic
Activity [27]: Active
Activity [28]: Non-Toxic
Activity [29]: Active
inhibition in vivo at 0.025 µmol/kg [30]: 29.8%
Activity [31]: Active
Activity [32]: Toxic
Activity [33]: Dde
Activity [34]: Active
